{"source": "paper PMC4556985", "about": "“Inhibitors of ORAI1 Prevent Cytosolic Calcium-Associated Injury of Human Pancreatic Acinar Cells and Acute Pancreatitis in 3 Mouse Models” (Gastroenterology, 2015)", "target": "T1, ORAI1 (Homo sapiens, UniProt Q96D31)", "T1 construct": "with STIM1 (human, co-expressed)", "T1 sequence (Q96D31 whole entry)": "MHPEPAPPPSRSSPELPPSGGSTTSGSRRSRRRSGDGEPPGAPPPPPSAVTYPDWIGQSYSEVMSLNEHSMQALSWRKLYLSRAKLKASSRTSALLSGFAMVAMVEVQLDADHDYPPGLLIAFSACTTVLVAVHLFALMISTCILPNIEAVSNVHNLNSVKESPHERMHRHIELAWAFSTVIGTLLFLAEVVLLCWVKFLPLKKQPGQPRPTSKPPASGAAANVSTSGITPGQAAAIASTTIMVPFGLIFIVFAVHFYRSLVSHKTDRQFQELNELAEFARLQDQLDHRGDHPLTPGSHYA", "T1 sequence (Q13586 23-685 partner)": "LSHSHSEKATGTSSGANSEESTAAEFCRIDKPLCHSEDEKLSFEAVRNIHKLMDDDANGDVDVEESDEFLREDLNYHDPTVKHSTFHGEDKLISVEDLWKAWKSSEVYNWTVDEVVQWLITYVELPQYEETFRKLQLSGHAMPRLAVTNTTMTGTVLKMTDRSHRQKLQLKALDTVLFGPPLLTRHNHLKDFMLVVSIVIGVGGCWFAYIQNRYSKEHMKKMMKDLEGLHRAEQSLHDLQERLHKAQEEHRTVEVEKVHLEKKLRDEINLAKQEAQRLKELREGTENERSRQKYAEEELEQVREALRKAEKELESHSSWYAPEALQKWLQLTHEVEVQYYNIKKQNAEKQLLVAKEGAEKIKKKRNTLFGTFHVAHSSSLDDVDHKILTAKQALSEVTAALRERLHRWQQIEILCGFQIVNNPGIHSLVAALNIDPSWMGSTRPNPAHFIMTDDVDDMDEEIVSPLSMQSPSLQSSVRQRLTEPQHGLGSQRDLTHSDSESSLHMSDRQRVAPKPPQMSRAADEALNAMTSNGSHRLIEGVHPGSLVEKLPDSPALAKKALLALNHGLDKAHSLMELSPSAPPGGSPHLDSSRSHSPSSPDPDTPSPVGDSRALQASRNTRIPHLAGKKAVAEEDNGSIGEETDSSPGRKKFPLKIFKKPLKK", "assay": "whole-cell patch clamp of ICRAC in HEK […] cells stably expressing hORAI1/hSTIM1", "format": "cell-based", "note": "pIC50: −log10 of the molar value.", "data": [{"smiles": "Cc1cccc(F)c1C(=O)Nc1cnc(-c2cc3c(cc2Cl)OC(F)(F)O3)cn1", "note": "[CM_128]", "values": [{"measurement": "pIC50", "value": "~7.00"}]}]}
